Results from US20220378706A1, “PHARMACEUTICAL COMPOSITION COMPRISING PDE9 INHIBITOR” (Eisai R&D Management Co., Ltd., priority 2017, published 2022).
Read-outs that look alike come from different tables or passages of the source.

Assay: Single dose clinical study: plasma Compound A pharmacokinetics
Type: in vivo, human
Description: This was a single center, single dose, randomized, double blind, placebo controlled study in healthy subjects. It consisted of 4 parts: Parts A, B, C, and D. Each of the four study parts had 2 phases: Prerandomization Phase and Randomization Phase. The Prerandomization Phase lasted up to 30 days and consisted of a Screening Period and a Baseline Period, during which each subject's study eligibility was determined and baseline assessments were performed.
In Part A, there were 8 sequential cohorts of healthy adult subjects (18-50 years of age). Subjects were randomly assigned to Compound A or placebo in a ratio of 6:2, respectively. Subjects in the Compound A cohorts were treated with single ascending doses of 10, 25, 50, 100, 200, 400, 800, or 1200 mg.
In Part B, there were 4 cohorts of healthy adult subjects (18-50 years of age). There were 8 subjects in Cohort 1, with 6 subjects randomly assigned to receive single doses of Compound A (400 mg) and 2 subjects randomly assigned to receive placebo. There were 7 subjects in Cohort 2 and Cohort 3, each with 6 subjects randomly assigned to receive single doses of Compound A (100 and 200 mg, respectively) and 1 subject randomly assigned to receive placebo. The dose of 100 mg selected in Cohort 2 was based on preliminary analysis of Cohort 1 data; this dose was predicted from PK/PD modeling to achieve a sustained CSF cGMP increase from baseline of approximately 200% when administered to steady state, and thereby provided a potentially therapeutic dose for further evaluation in future studies. There were 7 subjects in Cohort 4, with 6 subjects randomly assigned to receive a single dose of Compound A (50 mg [n=3] or 75 mg [n=3]) and 1 subject randomly assigned to receive placebo. The doses for Cohorts 3 and 4 were selected based on PK/PD modeling of the data in Cohorts 1 and 2.
Subjects in Cohort 2 who had received Compound A 100 mg or placebo under fasted conditions (1st Treatment Period) also participated in an evaluation of food effect on the PK of Compound A (2nd Treatment Period). After a washout period of at least 13 days (or 5 half-lives of Compound A, whichever was longer), subjects were admitted to the clinic for baseline assessments (2nd Baseline Period) and then received a single dose of the same treatment (Compound A 100 mg or placebo) after consuming a high fat and high calorie meal over 30 minutes. Blood PK samples were collected at prespecified time points. Safety evaluations were also assessed. CSF was not collected for PD evaluation during the 2nd Treatment Period. A Follow Up Visit occurred on Day 10 of Treatment Period 2.
In Part C, there was 1 cohort of 8 healthy elderly subjects (65 to 85 years of age) randomly assigned to receive a single dose of Compound A 100 mg or placebo in a ratio of 6:2, respectively.
In Part D, 3 cohorts of healthy adult Japanese subjects were randomized in parallel. There were 7 subjects in each cohort and subjects were randomly assigned to receive single doses of Compound A (25, 100, or 400 mg) or placebo in a ratio of 6:1, respectively.
Blood samples for determination of plasma Compound A concentrations were collected from predose to 216 hours postdose. On Day 1, blood PK samples were collected at predose and postdose 0.5 (30 minutes), 1, 1.5, 2, 3, 4, 5, 6, 8, 12, and 18 hours. Thereafter, samples were collected on Day 2 (24 and 36 hours postdose), Day 3 (48 hours postdose), Day 4 (72 hours postdose), Day 5 (96 hours postdose), Day 6 (120 hours postdose), Day 7 (144 hours postdose), and Day 10 (216 hours postdose).
Blood samples for determination of plasma Compound A concentrations were collected from predose to 216 hours postdose. For all cohorts, blood PK samples were collected on Day 1 at predose and postdose at 0.5 (30 minutes), 1, 1.5, 2, 3, 4, 5, 6, 8, 10, 12, and 18 hours. […]

[1] = 100 mg after high-fat and high-calorie meal
[2] = 400 mg, with weight as a covariate
[3] = Elderly:Younger Adults, single oral 100 mg
[4] = Japanese:non-Japanese, 25 mg, with weight as covariate
[5] = Japanese:non-Japanese, 25 mg, without weight as covariate
[6] = Japanese:non-Japanese, 100 mg, with weight as covariate
[7] = Japanese:non-Japanese, 100 mg, without weight as covariate
[8] = Japanese:non-Japanese, 400 mg, with weight as covariate
[9] = Japanese:non-Japanese, 400 mg, without weight as covariate

## COc1ncc(C)c(-c2ccc3c(c2)[nH]c(=O)c2cnn([C@H]4CCOC4)c23)c1C [Compound A, (S)-7-(2-methoxy-3,5-dimethylpyridin-4-yl)-1-(tetrahydrofuran-3-yl)-1H-pyrazolo[4,3-c]quin olin-4(5H)-one]
25 mg, with weight as a covariate
  geometric LS mean Cmax higher in Japanese than non-Japanese: 35.6%
100 mg
  geometric LS mean AUC(0-inf) higher in elderly than in younger healthy adult subjects: approximately 41.5%
  geometric LS mean Cmax higher in elderly than in younger healthy adult subjects: approximately 45.5%
100 mg after high fat and high calorie meal
  increase in the geometric LS mean Cmax, fed vs fasted: 44.4%
[1]
  increase in the geometric LS mean AUC(0-inf), fed vs fasted: 19.2%
  increase in the geometric LS mean Cmax, fed vs fasted: 44.400
100 mg, with weight as a covariate
  geometric LS mean Cmax higher in Japanese than non-Japanese: 30.0%
[2]
  geometric LS mean AUC(0-inf) higher in Japanese than non-Japanese: 27.9%
  geometric LS mean Cmax higher in Japanese than non-Japanese: 40.4%
25, 100, 400 mg
  geometric LS mean Cmax higher in Japanese than non-Japanese across the 3 doses: 35.2%
[3]
  AUC(0-inf) Geometric LS Mean Ratio (90% CI): 1.415 (1.168, 1.715)
  Cmax Geometric LS Mean Ratio (90% CI): 1.455 (1.198, 1.766)
Fed:Fasted, 100 mg, Part B
  AUC(0-inf) Geometric LS Mean Ratio (90% CI): 1.192 (1.003, 1.418)
  AUC(0-t) Geometric LS Mean Ratio (90% CI): 1.186 (0.992, 1.418)
  Cmax Geometric LS Mean Ratio (90% CI): 1.444 (1.210, 1.723)
[4]
  AUC(O-inf) Geometric LS Mean Ratio (90% CI): 1.035 (0.819, 1.308)
  Cmax Geometric LS Mean Ratio (90% CI): 1.356 (1.082, 1.699)
[5]
  AUC(O-inf) Geometric LS Mean Ratio (90% CI): 1.057 (0.845, 1.323)
  Cmax Geometric LS Mean Ratio (90% CI): 1.394 (1.122, 1.732)
[6]
  AUC(O-inf) Geometric LS Mean Ratio (90% CI): 0.935 (0.767, 1.140)
  Cmax Geometric LS Mean Ratio (90% CI): 1.300 (1.074, 1.573)
[7]
  AUC(O-inf) Geometric LS Mean Ratio (90% CI): 0.944 (0.778, 1.147)
  Cmax Geometric LS Mean Ratio (90% CI): 1.317 (1.091, 1.589)
[8]
  AUC(O-inf) Geometric LS Mean Ratio (90% CI): 1.279 (1.035, 1.580)
  Cmax Geometric LS Mean Ratio (90% CI): 1.404 (1.145, 1.721)
[9]
  AUC(O-inf) Geometric LS Mean Ratio (90% CI): 1.300 (1.059, 1.595)
  Cmax Geometric LS Mean Ratio (90% CI): 1.433 (1.176, 1.747)
human, plasma, oral, 25 mg, Japanese, 25 mg, with weight as covariate, read-out: AUC(O-inf) Geometric LS Means Test
  AUC: 4500 ng·h/mL
human, plasma, oral, 25 mg, Japanese, 25 mg, with weight as covariate, read-out: Cmax Geometric LS Means Test
  Cmax: 207 ng/mL
human, plasma, oral, 25 mg, Japanese, 25 mg, without weight as covariate, read-out: AUC(O-inf) Geometric LS Means Test
  AUC: 4580 ng·h/mL
human, plasma, oral, 25 mg, Japanese, 25 mg, without weight as covariate, read-out: Cmax Geometric LS Means Test
  Cmax: 212 ng/mL
human, plasma, oral, 25 mg, non-Japanese, 25 mg, with weight as covariate, read-out: AUC(O-inf) Geometric LS Means Reference
  AUC: 4350 ng·h/mL
human, plasma, oral, 25 mg, non-Japanese, 25 mg, with weight as covariate, read-out: Cmax Geometric LS Means Reference
  Cmax: 152 ng/mL
human, plasma, oral, 25 mg, non-Japanese, 25 mg, without weight as covariate, read-out: AUC(O-inf) Geometric LS Means Reference
  AUC: 4340 ng·h/mL
human, plasma, oral, 25 mg, non-Japanese, 25 mg, without weight as covariate, read-out: Cmax Geometric LS Means Reference
  Cmax: 152 ng/mL
human, plasma, oral, 100 mg, Fasted, 100 mg, Part B, read-out: AUC(0-inf) Geometric LS Means Reference
  AUC(0-inf): 14500 ng·h/mL
human, plasma, oral, 100 mg, Fasted, 100 mg, Part B, read-out: AUC(0-t) Geometric LS Means Reference
  AUC(0-t): 14400 ng·h/mL
human, plasma, oral, 100 mg, Fasted, 100 mg, Part B, read-out: Cmax Geometric LS Means Reference
  Cmax: 371 ng/mL
human, plasma, oral, 100 mg, Fed, 100 mg, Part B, read-out: AUC(0-inf) Geometric LS Means Test
  AUC(0-inf): 17300 ng·h/mL
human, plasma, oral, 100 mg, Fed, 100 mg, Part B, read-out: AUC(0-t) Geometric LS Means Test
  AUC(0-t): 17100 ng·h/mL
human, plasma, oral, 100 mg, Fed, 100 mg, Part B, read-out: Cmax Geometric LS Means Test
  Cmax: 536 ng/mL
human, plasma, oral, 100 mg, Japanese, 100 mg, with weight as covariate, read-out: AUC(O-inf) Geometric LS Means Test
  AUC: 14200 ng·h/mL
human, plasma, oral, 100 mg, Japanese, 100 mg, with weight as covariate, read-out: Cmax Geometric LS Means Test
  Cmax: 491 ng/mL
human, plasma, oral, 100 mg, Japanese, 100 mg, without weight as covariate, read-out: AUC(O-inf) Geometric LS Means Test
  AUC: 14200 ng·h/mL
human, plasma, oral, 100 mg, Japanese, 100 mg, without weight as covariate, read-out: Cmax Geometric LS Means Test
  Cmax: 492 ng/mL
human, plasma, oral, 100 mg, non-Japanese, 100 mg, with weight as covariate, read-out: AUC(O-inf) Geometric LS Means Reference
  AUC: 15200 ng·h/mL
human, plasma, oral, 100 mg, non-Japanese, 100 mg, with weight as covariate, read-out: Cmax Geometric LS Means Reference
  Cmax: 378 ng/mL
human, plasma, oral, 100 mg, non-Japanese, 100 mg, without weight as covariate, read-out: AUC(O-inf) Geometric LS Means Reference
  AUC: 15000 ng·h/mL
human, plasma, oral, 100 mg, non-Japanese, 100 mg, without weight as covariate, read-out: Cmax Geometric LS Means Reference
  Cmax: 373 ng/mL
human, plasma, oral, 100 mg, read-out: mean terminal half-life longer in elderly than in younger healthy adult subjects (converted)
  half-life: ~10 h
human, plasma, oral, 400 mg, Japanese, 400 mg, with weight as covariate, read-out: AUC(O-inf) Geometric LS Means Test
  AUC: 46000 ng·h/mL
human, plasma, oral, 400 mg, Japanese, 400 mg, with weight as covariate, read-out: Cmax Geometric LS Means Test
  Cmax: 1170 ng/mL
human, plasma, oral, 400 mg, Japanese, 400 mg, without weight as covariate, read-out: AUC(O-inf) Geometric LS Means Test
  AUC: 46500 ng·h/mL
human, plasma, oral, 400 mg, Japanese, 400 mg, without weight as covariate, read-out: Cmax Geometric LS Means Test
  Cmax: 1180 ng/mL
human, plasma, oral, 400 mg, non-Japanese, 400 mg, with weight as covariate, read-out: AUC(O-inf) Geometric LS Means Reference
  AUC: 36000 ng·h/mL
